According to patent publication US8637683B2, “Macrocyclic lactone derivatives for the treatment of cancer” (Piramal Enterprises Limited, priority 2009, dated 2014):
pIC50: −log10 of the molar value.

Assays:
[1] = system: panel of 12 human tumor cell lines; assay: Monolayer assay, panel of 12 human tumor cell lines; format: cell-based; settings: for pIC50 / Mean IC70: mean over panel of 12 human tumor cell lines, test range 0.0001 μM-10 μM; for % Selectivity / Rating (selectivity) / Selectivity Total (cell lines with individual IC70 < 1/3 mean IC70) / in vitro antitumor activity: panel of 12 human tumor cell lines
Experimental: (§1) Cell lines were routinely passaged once or twice weekly and maintained in culture for upto 20 passages. All cells were grown at 37° C. in a humidified atmosphere with 5% CO2 in RPMI 1640 medium supplemented with 10% (v/v) fetal calf serum (FCS) and 0.1 mg/mL gentamicin (medium and all other components from PAA, Cölbe, Germany). Authenticity of all cell lines was proven at the DSMZ by STR (short tandem repeat) analysis, a PCR based DNA-fingerprinting methodology.
Stock solutions of the test compounds (330 μg/mL in DMSO) were prepared and stored in small aliquots (200 μL) at −20° C. An aliquot of the stock solution was thawed on the day of use and stored at room temperature prior to and during dosing. The subsequent dilutions were done with complete RPMI 1640 cell culture medium as follows: the stock solution was diluted 1:22 followed by serial dilutions finally resulting in a (compared to the test concentration) 15-fold higher concentration. For the final dilution step (1:15), 10 μL/well of the respective compound solution was directly added to 140 μL/well culture medium. Test compounds were tested at […]. Each concentration was evaluated in triplicate.
A modified propidium iodide assay was used to assess the effect of the test compounds on the growth of the human tumor cell lines and was designed as in reference, Anti-cancer Drugs, 6, 522-532, (1995), the disclosure of which is incorporated by reference for the teaching of the assay.
Cells were plated in 96-well flat-bottom microtiter plates at a cell density of 4,000 to 10,000 cells/well. After a 24 h recovery period to allow the cells to resume exponential growth, the test compounds were applied at five concentrations in log increments in triplicates in two independent runs. After 4 days of treatment, the medium with/without test compounds including all floating (i.e., dead) cells was aspirated and replaced by 200 μL of an aqueous propidium iodide (PI) solution (7 μg/mL). To measure the viable cell number, the remaining adherent cells were killed and permeabilized by repeated freezing and thawing and PI fluorescence was measured using the Cytofluor 4000 microplate reader (excitation λ=530 nm, emission λ=620 nm), which was a measure for the number of cells which survived treatment. Pharmacological effects on cell proliferation and survival were expressed as Test/Control×100 (% T/C) values, with T and C representing the fluorescence read-outs for wells with and without test compound, respectively, i.e. T/C represents the ratio of viable cell numbers following incubation of cell line with/without test compound. Based on the T/C values IC50 and IC70 values, being the drug concentration necessary to inhibit cell growth by 50% (T/C=50%) and 70% (T/C=30%), respectively, were determined by plotting compound concentration versus cell viability (T/C). IC-values were calculated based on the principle of linear two-point curve fit.

[2] = system: CXF 269L; assay: Monolayer assay (modified propidium iodide), CXF 269L; format: cell-based, human; settings: Colon, 4 days of treatment
Description: (§2) Oncotest GmbH, Germany's proprietary tumor cell line panel comprises 40 cell lines. These cell lines were derived from 15 different tumor histotypes, each represented by 1 to 6 different cell lines. Cell lines were established from cancer of the bladder (3), colon (4), head and neck (1), lung (6), breast (3), pancreas (3), prostate (4), ovary (2), kidney (3), liver (1), stomach (1) and the uteri body (1), as well as from melanoma (3), sarcoma (2) and pleuramesothelioma (3). Out of these 40 cell lines, 24 cell lines were established at Oncotest, from patient-derived tumor xenografts. The other 16 cell lines were either provided by the NCI (Bethesda; MD, USA) or were purchased from ATCC (Rockville, Md., USA) or DSMZ (Braunschweig, Germany).
as §1, with “Authenticity of all cell lines was proven at the DSMZ by STR (short tandem repeat) analysis, a PCR based DNA-fingerprinting methodology.” left out
(§3) Stock solutions of the test compounds (330 μg/mL in DMSO) were prepared and stored in small aliquots (200 μL) at −20° C. […] Each concentration was evaluated in triplicate. […]
(§4) Cells were plated in 96-well flat-bottom microtiter plates at a cell density of 4,000 to 10,000 cells/well. […] To measure the viable cell number, the remaining adherent cells were killed and permeabilized by repeated freezing and thawing and PI fluorescence was measured using the Cytofluor 4000 microplate reader (excitation λ=530 nm, emission λ=620 nm), which was a measure for the number of cells which survived treatment. Pharmacological effects on cell proliferation and survival were expressed as Test/Control×100 (% T/C) values, with T and C representing the fluorescence read-outs for wells with and without test compound, respectively, i.e. T/C represents the ratio of viable cell numbers following incubation of cell line with/without test compound. […] IC-values were calculated based on the principle of linear two-point curve fit. […]

[3] = system: MDA 231; assay: Monolayer assay (modified propidium iodide), MDA 231; format: cell-based, human; settings: MDA 231, Mammary; 4 days of treatment
Description: as §2
as §1, with “Authenticity of all cell lines was proven at the DSMZ by STR (short tandem repeat) analysis, a PCR based DNA-fingerprinting methodology.” left out
as §3, §4

[4] = system: T 24; assay: Monolayer assay (modified propidium iodide), T 24; format: cell-based, human; settings: T 24, Bladder; 4 days of treatment
Description: as §2
as §1, with “Authenticity of all cell lines was proven at the DSMZ by STR (short tandem repeat) analysis, a PCR based DNA-fingerprinting methodology.” left out
as §3, §4

[5] = system: LXF 526L; assay: Monolayer assay (modified propidium iodide), LXF 526L; format: cell-based, human; settings: Lung, 4 days of treatment
Description: as §2
as §1, with “Authenticity of all cell lines was proven at the DSMZ by STR (short tandem repeat) analysis, a PCR based DNA-fingerprinting methodology.” left out
as §3, §4

With `C/C=C/C(O)C(C)/C=C/C(=NOCC(=O)NCCO)C(C)C(O)C(C)C1OC(=O)/C(OC)=C/C(C)=C/C(C)C(O)C(CC)C(O)C(C)C/C(C)=C/C=C/C1OC` (stereo in doubt) [Example 12, 2-((Z)-((6E,10E)-2-((4E,6E,14E,16Z)-11-Ethyl-10,12-dihydroxy-3,17-dimethoxy-7,9,13,15-tetramethyl-18-oxooxacyclooctadeca-4,6,14,16-tetraen-2-yl)-3,9-dihydroxy-4,8-dimethyldodeca-6,10-dien-5-ylidene)aminooxy)-N-(2-hydroxyethyl)acetamide] as the compound, how does the pIC50 [1] read?
The pIC50 was 8.70.

What about the “Mean IC70” value [1] of the same compound?
Its value is 0.006 µM.

And the “% Selectivity” value [1]?
The value was 42%.

And the “Rating (selectivity)” value [1]?
The value was “(+ + +)”.

What about the “Selectivity Total (cell lines with individual IC70 < 1/3 mean IC70)” value (from here on “Selectivity Total”) [1] of the same compound?
Its value is 5/12.

What about the “in vitro antitumor activity” value [1] of the same compound?
Its value is “showed in vitro antitumor activity”.

`C/C=C/C(O)C(C)/C=C/C(=NOCC(=O)N1CCC(N2CCCCC2)CC1)C(C)C(O)C(C)C1OC(=O)/C(OC)=C/C(C)=C/C(C)C(O)C(CC)C(O)C(C)C/C(C)=C/C=C/C1OC` (stereo in doubt) [Example 14, (3Z,5E,13E,15E)-18-((5Z,6E,10E)-5-(2-(1,4′-Bipiperidin-1′-yl)-2-oxoethoxyimino)-3,9-dihydroxy-4,8-dimethyldodeca-6,10-dien-2-yl)-9-ethyl-8,10-dihydroxy-3,17-dimethoxy-5,7,11,13-tetramethyloxacyclooctadeca-3,5,13,15-tetraen-2-one] was tested. Which pIC50 [1] did it give?
The pIC50 was 6.45.

What about the “Mean IC70” value [1] of the same compound?
The value was 0.762 µM.

And the “% Selectivity” value [1]?
The value was 8%.

And the “Rating (selectivity)” value [1]?
Its value is “(+) (+ (4% > selective >= 12%))”.

And the “Selectivity Total” value [1]?
The value was 1/12.

And the “in vitro antitumor activity” value [1]?
Its value is “showed in vitro antitumor activity”.

How did the pIC50 [1] turn out when `C/C=C/C(O)C(C)/C=C/C(=NOCC(=O)N1CCCCC1)C(C)C(O)C(C)C1OC(=O)/C(OC)=C/C(C)=C/C(C)C(O)C(CC)C(O)C(C)C/C(C)=C/C=C/C1OC` (stereo in doubt) [Example 13, (3Z,5E,13E,15E)-18-((5Z,6E,10E)-3,9-Dihydroxy-4,8-dimethyl-5-(2-oxo-2-(piperidin-1-yl)ethoxyimino)dodeca-6,10-dien-2-yl)-9-ethyl-8,10-dihydroxy-3,17-dimethoxy-5,7,11,13-tetramethyloxacyclooctadeca-3,5,13,15-tetraen-2-one] was run?
Its pIC50 is 7.52.

And the “Mean IC70” value [1]?
The value was 0.097 µM.

And the “% Selectivity” value [1]?
Its value is 17%.

And the “Rating (selectivity)” value [1]?
Its value is “(+ +)”.

What about the “Selectivity Total” value [1] of the same compound?
Its value is 2/12.

What about the “in vitro antitumor activity” value [1] of the same compound?
The value was “showed in vitro antitumor activity”.

How did the pIC50 [1] turn out when `C/C=C/C(O)C(C)/C=C/C(=NOCC(=O)NCc1ccc(F)cc1)C(C)C(O)C(C)C1OC(=O)/C(OC)=C/C(C)=C/C(C)C(O)C(CC)C(O)C(C)C/C(C)=C/C=C/C1OC` (stereo in doubt) [Example 15, 2-((Z)-((6E,10E)-2-((4E,6E,14E,16Z)-11 Ethyl-10,12-dihydroxy-3,17-dimethoxy-7,9,13,15-tetramethyl-18-oxooxacyclooctadeca-4,6,14,16-tetraen-2-yl)-3,9-dihydroxy-4,8-dimethyldodeca-6,10-dien-5-ylidene)aminooxy)-N-(4-fluorobenzyl)acetamide] was run?
Its pIC50 is 9.00.

And the “Mean IC70” value [1]?
The value was 0.003 µM.

And the “% Selectivity” value [1]?
The value was 50%.

What about the “Rating (selectivity)” value [1] of the same compound?
The value was “(+++) (+++ (% selective > 20%))”.

And the “Selectivity Total” value [1]?
Its value is 6/12.

And the “in vitro antitumor activity” value [1]?
The value was “showed in vitro antitumor activity”.

Which IC70 [2] does the source give for `C/C=C/C(O)C(C)/C=C/C(=N\OC)C(C)C(O)C(C)C1OC(=O)/C(OC)=C/C(C)=C/C(C)C(O)C(CC)C(O)C(C)C/C(C)=C/C=C/C1OC` (stereo not shown) [Example 8, (3Z,5E,13E,15E)-18-((5E,6E,10E)-3,9-Dihydroxy-5-(methoxyimino)-4,8-dimethyldodeca-6,10-dien-2-yl)-9-ethyl-8,10-dihydroxy-3,17-dimethoxy-5,7,11,13-tetramethyloxacycloocta deca-3,5,13,15-tetraen-2-one] here?
Its IC70 is at most 0.3 ng/mL.

And the IC70 [3]?
Its IC70 is at most 0.3 ng/mL.

What about the IC70 [4] of the same compound?
Its IC70 is at most 0.3 ng/mL.

What about the IC70 [5] of the same compound?
Its IC70 is at most 0.3 ng/mL.

Which results are given for `C/C=C/C(O)C(C)/C=C/C(=NOCC(=O)O)C(C)C(O)C(C)C1OC(=O)/C(OC)=C/C(C)=C/C(C)C(O)C(CC)C(O)C(C)C/C(C)=C/C=C/C1OC` (stereo in doubt) [Example 10, ((Z)-((6E,10E)-2-((4E,6E,14E,16Z)-11-Ethyl-10,12-dihydroxy-3,17-dimethoxy-7,9,13,15-tetramethyl-18-oxooxacyclooctadeca-4,6,14,16-tetraen-2-yl)-3,9-dihydroxy-4,8-dimethyldodeca-6,10-dien-5-ylidene)aminooxy)acetic acid]?
pIC50 [1]: 6.29; Mean IC70 [1]: 1.258 µM; % Selectivity [1]: 8%; Rating (selectivity) [1]: (+) (+ (4% > selective >= 12%)); Selectivity Total (cell lines with individual IC70 < 1/3 mean IC70) [1]: 1/12; in vitro antitumor activity [1]: showed in vitro antitumor activity

Which results are given for `C/C=C/C(O)C(C)/C=C/C(=NOCC(=O)N1CCN(C)CC1)C(C)C(O)C(C)C1OC(=O)/C(OC)=C/C(C)=C/C(C)C(O)C(CC)C(O)C(C)C/C(C)=C/C=C/C1OC` (stereo in doubt) [Example 11, (3Z,5E,13E,15E)-18-((5Z,6E,10E)-3,9-Dihydroxy-4,8-dimethyl-5-(2-(4-methylpiperazin-1-yl)-2-oxoethoxyimino)dodeca-6,10-dien-2-yl)-9-ethyl-8,10-dihydroxy-3,17-dimethoxy-5,7,11,13-tetramethyloxacyclooctadeca-3,5,13,15-tetraen-2-one]?
pIC50 [1]: 8.22; Mean IC70 [1]: 0.020 µM; % Selectivity [1]: 25%; Rating (selectivity) [1]: (+ + +); Selectivity Total (cell lines with individual IC70 < 1/3 mean IC70) [1]: 3/12; in vitro antitumor activity [1]: showed in vitro antitumor activity
